{
  "source": "patent US20160144055A1",
  "about": "“GENE THERAPY VECTOR FOR TREATMENT OF STEROID GLAUCOMA” (priority 2009, published 2016)",
  "key": {"[1]": {"system": "sheep eyes treated with triamcinolone or prednisolone", "test": "IOP in sheep given triamcinolone in one eye and prednisolone in the other, with Ad vector", "type": "in vivo, sheep (Ovis aries)", "from_the_text": "After determining the baseline measurement of IOP over the course of several days, two drops of 0.5% prednisolone acetate (Ultracortenol; Novartis Ophthalmics, Hettlingen, Switzerland) was topically instilled 3-times daily at 7 AM, 2 PM, and 7 PM for durations that lasted for 10-15 days depending on the experiment. In some experiments, prednisolone was instilled bilaterally; in others only one eye received the corticosteroid.\nThe injection procedure took less than 30 seconds.\nAdditional experiments (employing 2 separate protocols, each on one sheep) tested the effects of the injection of Ad virus carrying active MMP1 transgene on the IOP of contralateral eyes treated with unilateral triamcinolone and unilateral prednisolone. In the first protocol of this set, one eye of a sheep was administered triamcinolone via a sub-Tenon injection two weeks before the start of IOP measurements. The point at which IOP measurements were initiated was designated “Day 0” of the experiment. […] After recording these measurements, thrice daily instillations of prednisolone were begun on eye OS. Three-days later, when the IOP's of both eyes were nearly identical, Ad virus carrying active MMP1 transgene was bilaterally injected into the anterior chambers of the eyes. […] At the point of virus injection, IOP of eye OD had been elevated for 17 days; after virus injection, IOP was reduced up to Day 24. […]"}, "[2]": {"system": "sheep eyes with triamcinolone-induced ocular hypertension", "details": "for IOP on Day 4 after bilateral sub-Tenon injection: n=4, before virus", "procedure": "All animal experiments were performed in accordance with the Association for Research in Vision and Ophthalmology (ARVO) guidelines. A total of 18 healthy (female) sheep (Corriedale breed) between 12 and 24 months of age, and weighing 35 to 40 kg, were selected from a local ranch in Corrientes, Argentina for this study. The eyes and general health of the animals were considered normal by an ophthalmologist and a veterinarian, respectively. Sheep were tagged for individual identification on their ear lobes and herded from pasture whenever it was necessary to 1) topically instill prednisolone, 2) inject a sub-Tenon depot of triamcinolone acetonide, 3) inject adenoviral vectors carrying the MMP1 transgene intracamerally via the cornea, or 4) measure IOP by applanation tonometry. To apply prednisolone, the sheep were guided into a funnel corral ending in a loose-fitting yoke. This arrangement allowed movement and holding of the head by one person while another instilled the drops. To measure IOP with a Perkins tonometer, the sheep were also guided into the funnel corral and then into the neck yoke. For the sub-Tenon injection of triamcinolone, and the trans-corneal injections of adenoviral vectors, sheep were anesthetized topically. Between all procedures, the sheep were free to pasture.\nIn those sheep in which triamcinolone was used to induce ocular hypertension, the following general protocol was applied. Two drops of proparacaine (0.5%) were topically instilled to the ocular surface. Then, a single 1-ml injection of sterile triamcinolone acetonide (40 mg/ml, or 4%; Bristol-Myers Squibb Co., Princeton, N.J., United States of America) was administered via sub-Tenon injection using a 30G needle inserted 5 mm from the limbus.\nFor the injections, the distance from the limbus was determined from the width of a 5 mm×30 mm Schirmer strip that was held between the limbus and the injection site. The conjunctiva at the injection site was grasped with fine forceps and an initial oblique conjunctival puncture was made with the needle bevel facing upwards. […] The needle was pushed through Tenon's capsule until the tip reached the sclera (as determined by feel). Care was taken to avoid puncturing the sclera itself. Also, since Tenon's capsule consists of several layers, care was also taken to administer a sub-Tenon (to create a juxta-scleral depot), and not an intra-Tenon's injection. Immediately following the injection the needle was rapidly withdrawn. The volume injected (1 ml) yielded a characteristic 180°-240° quasi-donut-shaped bolus of fluid around the limbus. Each injected eye then received drops of TOBREX® (tobramycin ophthalmic solution, 0.3%, Alcon Laboratories, Inc., Fort Worth, Tex., United States of America).\nAnimals were led to a funnel corral and their heads were suitably oriented within a neck yoke to enable an ophthalmologist to measure IOP with the Perkins tonometer. Before the IOP measurement, 2 drops of topical 0.5% proparacaine (Alcon Argentina) followed by 2 drops of 0.25% fluorescein were instilled. Two sets of measurements were taken on each eye alternating first one eye and then the other. All IOP measurements were taken between 2 PM and 4 PM every 2 or 3 days. The Perkins tonometry readings were converted to mmHg as described in detail previously (Kass et al., Arch Ophthalmol. 2002; 120:701-713).\nDetails of the design, construction, characterization and titration of the steroid-inducible MMP1 adenoviruses are provided in Example 2, above. At the time of viral administration, an Eppendorf™ tube containing the frozen virus suspension was thawed in the field as the sheep were immobilized within a narrow passage ending in a yoke. Two drops of topical proparacaine 0.5% (Alcon, Argentina) were instilled on the eyes as an anesthetic. Following this 30 μl of the virus suspension was injected into the eye using a Hamilton syringe with a 28G needle."}, "[3]": {"system": "MMP1 expression in primary HTM cells", "test": "Endogenous MMP1 expression in glucocorticoid-treated primary HTM cells (real-time TaqMan PCR)", "type": "cell-based, human", "procedure": "To generate primary HTM cells, the trabecular meshwork tissue was dissected from residual cornea rims after surgical corneal transplantation at the University of North Carolina Eye Clinic, Chapel Hill, N.C., United States of America. Trabecular meshworks were isolated from surrounding tissue, cut into small pieces and treated with 1 mg/ml collagenase type IV (Worthington, Lakewood, N.J., United States of America), as previously described (Vittitow et al., Mol Via 2002; 8:32-44). Cells were maintained at 37° C., 7% CO2 in MEM Richter's modification medium (HyClone, Thermo Fisher Scientific, Waltham, Mass., United States of America) supplemented with 20% FBS and 50 ug/ml gentamicin (Gibco Invitrogen, Carlsbad, Calif., United States of America). At confluency, cells were passed and maintained in the same medium but with 10% FBS (complete medium). All cells were used at passages 4 to 6. These outflow pathway cultures include cells from the three distinct regions of the trabecular meshwork plus cells lining the Schlemm's canal (SC). Because most of the cells in these cultures come from the trabecular meshwork they are commonly referred to as trabecular meshwork cells. The cells used in this study were from a person (HTM-109), a person (HTM-95), a person (HTM-106) and a person (HTM-140).\nDrug treatments on the HTM cells were conducted in complete media. HTM cells were grown to pre-confluency and exposed to drugs as follows. Treatment with dexamethasone (DEX; Sigma, St. Louis, Mo., United States of America) was conducted at a final concentration of 0.1 uM. DEX was reconstituted in absolute ethanol at 0.1 mM and diluted 1,000-fold into complete media every 48 to 72 hours for the duration of the experiment. Treatment with triamcinolone acetonide (Kenacort-A; Bristol-Myers Squibb, New York, N.Y., United States of America) was performed at a final concentration of 0.1 mg/ml. Kenacort-A 40 mg/ml suspension was well mixed and diluted into complete medium 400-fold at the time of use. The concentration of 0.1 mg/ml triamcinolone acetonide was chosen because intravitreal injections of 1 mg/ml are widely used in the clinical setting, which would result in a lower concentration of the steroid in the aqueous humor. In addition, the concentration of 0.1 mg/ml has been successfully studied in trabecular meshwork cells (Fan B J et al., Invest Ophthalmol Vis Sci. 2008; 49:1886-1897). Treatment with prednisolone was conducted at a final concentration of 200 uM (80 μg/ml). Prednisolone 21-acetate (Sigma) was reconstituted in ethanol at 200 mM (80 mg/ml) as a suspension and mixed well prior dilution of 1,000-fold into the culture medium. The drugs were exposed to the cells for the period of time described in results. Untreated control dishes received the same volume of absolute ethanol (drug vehicle) under identical conditions.\nHTM cells were scraped from tissue culture dishes with guanidine thiocyanate buffer (RLT, Qiagen, Valencia, Calif., United States of America). Total RNA was extracted by loading the solution onto a QIA Shredder™ column (Qiagen) and continued by the use of the RNeasy Mini kit with on-column RNase-free DNAse digestion according to manufacturer's recommendations (Qiagen). Purified RNA was eluted in 30 ul RNase-free water and concentration measured with a NanoDrop ND-100 spectrophotometer (Thermo Fisher Scientific). For the tissue, human trabecular meshworks were excised from one week RNAlater (Ambion Applied Biosystems, Austin, Tex., United States of America) immersed anterior segments. One half of the isolated trabecular meshwork tissue was homogenized on 350 μl of RLT and RNA extraction continued as described for the cells. Recoveries were between 1.4 to 2 ug of RNA per human trabecular meshwork. […]"}, "sheep eyes": {"system": "sheep eyes", "details": "cited from earlier work"}},
  "note": "“And” between values parts separate entries of the source, which are not always exact repeats. Equal values may be shown once. Read-outs that look alike come from different tables or passages of the source.",
  "data": [
    {"smiles": "CC1(C)O[C@@H]2C[C@H]3[C@@H]4CCC5=CC(=O)C=C[C@]5(C)[C@@]4(F)[C@@H](O)C[C@]3(C)[C@]2(C(=O)CO)O1", "note": "[triamcinolone acetonide]", "values": [
      {"measurement": "IOP of the triamcinolone-treated eye on Day 15", "setting": "[1]; FIGS. 11 and 12", "result": "above 25 mmHg"},
      {"measurement": "IOP of the eye given triamcinolone relative to fellow eye on Day 0", "setting": "[1]; sub-Tenon injection two weeks before", "result": "about twice that of eye OS"},
      {"measurement": "IOP 15 days after sub-Tenon drug injection", "setting": "[2]; FIG. 9", "result": "less than 20 mmHg"},
      {"measurement": "IOP of the fellow eyes on Day 18", "setting": "[2]; depot nearly consumed, eyes had also received Ad vectors on Day 4, n=4 each", "result": "10.5±0.4 mmHg and 12.4±0.2 mmHg"},
      {"measurement": "IOP on Day 4 after bilateral sub-Tenon injection", "setting": "[2]; eyes then injected with active MMP1 vector", "result": "22.1±0.2", "unit": "mmHg"},
      {"measurement": "IOP on Day 4 after bilateral sub-Tenon injection", "setting": "[2]; eyes then injected with mutated MMP1 vector", "result": "22.6±0.8", "unit": "mmHg"},
      {"measurement": "IOP on Day 4 after unilateral sub-Tenon injection", "setting": "[2]; n=3, before null Ad injection", "result": "25.2±0.4", "unit": "mmHg"},
      {"measurement": "time the depot subsisted in the eye as judged by IOP", "setting": "[2]; sub-Tenon depot", "result": "14 to 20", "unit": "days"},
      {"measurement": "time the depots subsisted as determined by the IOP", "setting": "[2]; sub-Tenon depot", "result": "2-3 weeks"},
      {"measurement": "MMP1 cDNA levels (RQ)", "setting": "[3]; 0.1 mg/ml, 12 hours, HTM-109 cells", "result": "0.42±0.1"},
      {"measurement": "downregulation of MMP1 at the transcriptional level", "setting": "[3]; shorter time periods", "result": 2.4, "unit": "fold"}
    ]},
    {"smiles": "CC(=O)OCC(=O)[C@@]1(O)CC[C@H]2[C@@H]3CCC4=CC(=O)C=C[C@]4(C)[C@H]3[C@@H](O)C[C@@]21C", "note": "[prednisolone, Prednisolone 21-acetate]", "values": [
      {"measurement": "IOP increase", "setting": "sheep eyes; 0.5% topically three times daily, within 2 weeks", "result": "approximately 2.5 fold"},
      {"measurement": "incidence of intraocular pressure elevation in treated eyes", "setting": "sheep eyes; 0.5% topically three times daily", "result": 100, "unit": "%"},
      {"measurement": "time for IOP to decline to baseline after discontinuation", "setting": "sheep eyes; in vivo", "result": "1-3 weeks"},
      {"measurement": "MMP1 cDNA levels (RQ)", "setting": "[3]; 80 μg/ml, 24 hours, HTM-109 cells", "result": "0.16±0.02"},
      {"measurement": "downregulation of MMP1 at the transcriptional level", "setting": "[3]; shorter time periods", "result": 6.2, "unit": "fold"}
    ]},
    {"smiles": "C[C@@H]1C[C@H]2[C@@H]3CCC4=CC(=O)C=C[C@]4(C)[C@@]3(F)[C@@H](O)C[C@]2(C)[C@@]1(O)C(=O)CO", "note": "[DEX, dexamethasone]", "values": [
      {"measurement": "MMP1 expression, RQ values (18S normalized MMP1 cDNA)", "setting": "[3]; 0.1 μM DEX, 3 days, HTM-109 cells", "result": "0.03±0.0002"},
      {"measurement": "MMP1 expression, RQ values (18S normalized MMP1 cDNA)", "setting": "[3]; 0.1 μM DEX, 6 days, HTM-109 cells", "result": "0.002±0.0002"},
      {"measurement": "MMP1 expression, RQ values (18S normalized MMP1 cDNA)", "setting": "[3]; DEX removed from medium at 3 days, measured at day 6", "result": "0.03±0.002"},
      {"measurement": "downregulation of MMP1 at the transcriptional level", "setting": "[3]; DEX-treated cells for 6 days", "result": 500, "unit": "fold"}
    ]}
  ]
}
